Values of other authors in US6498171B2, “Hydroxyomeprazole compositions” (Sepracor Inc., priority 1998, dated 2002).

Legend:
[1] = system: isolated gastric glands; details: read-out: IC50, inhibitory effect on aminopyrine uptake
[2] = humans
[3] = poor metabolizers vs extensive metabolizers, serum

SMILES	IC50 [1]	Cmax is at (time) [2]	serum half-life ([2]; highly variable)	8-hour AUC, poor metabolizers relative to extensive metabolizers [3]
COc1ccc2[nH]c([S+]([O-])Cc3ncc(C)c(OC)c3C)nc2c1 (racemic) [racemic omeprazole, Omeprazole]	0.48 µM	0.5 to 3.5 h	30 to 60 min	
COc1ccc2[nH]c([S+]([O-])Cc3ncc(CO)c(OC)c3C)nc2c1 (racemic) [racemic hydroxyomeprazole]	33 µM			
COc1ccc2nc(S(=O)(=O)Cc3ncc(C)c(OC)c3C)[nH]c2c1 [omeprazole sulfone]				more than 10 times higher
